The results in this text go back to PubChem BioAssay AID256 (DTP/NCI, 2004).

This assay has as its system CD2F1 mice, L1210 leukemia ip, survival T/C. Put plainly: NCI In Vivo Anticancer Drug Screen. Data for tumor model L1210 Leukemia (intraperitoneal) in CD2F1 (CDF1) mice. Particulars: higher = longer survival. Here is the method: The antitumor activity of compounds was measured in mice bearing transplantable tumors. Survival or tumor size were measured and the results are expressed as the measurement made in the treated group (T) divided by the measurement made in the vehicle treated control group (C). The tumor model used in this assay is L1210 Leukemia (intraperitoneal) in CD2F1 (CDF1) mice

Setting [1] is: endpoint: mean survival time, dose: 100.0 mg/kg/injection, schedule: Q01DX001 (ip), vehicle: saline with Tween-80.
[2] abbreviates: endpoint: mean survival time, dose: 100.0 mg/kg/injection, schedule: Q04DX002 (ip), vehicle: saline with Tween-80.
[3] abbreviates: endpoint: mean survival time, dose: 100.0 mg/kg/injection, schedule: Q04DX003 (ip), vehicle: saline with Tween-80.
[4] abbreviates: endpoint: mean survival time, dose: 200.0 mg/kg/injection, schedule: Q01DX001 (ip), vehicle: saline with Tween-80.
Setting [5] is: endpoint: mean survival time, dose: 200.0 mg/kg/injection, schedule: Q01DX009 (ip), vehicle: saline with Tween-80.
Setting [6] is: endpoint: mean survival time, dose: 200.0 mg/kg/injection, schedule: Q04DX002 (ip), vehicle: saline with Tween-80.
Where [7] appears, read: endpoint: mean survival time, dose: 200.0 mg/kg/injection, schedule: Q04DX003 (ip), vehicle: saline with Tween-80.
The mark [8] stands for this setting: endpoint: mean survival time, dose: 400.0 mg/kg/injection, schedule: Q01DX001 (ip), vehicle: saline with Tween-80.
Setting [9] is: endpoint: mean survival time, dose: 400.0 mg/kg/injection, schedule: Q01DX009 (ip), vehicle: saline with Tween-80.
The mark [10] stands for this setting: endpoint: mean survival time, dose: 400.0 mg/kg/injection, schedule: Q04DX002 (ip), vehicle: saline with Tween-80.
Setting [11] is: endpoint: mean survival time, dose: 400.0 mg/kg/injection, schedule: Q04DX003 (ip), vehicle: saline with Tween-80.
[12] abbreviates: endpoint: mean survival time, dose: 100.0 mg/kg/injection, schedule: Q01DX001 (ip), vehicle: saline.
[13] abbreviates: endpoint: mean survival time, dose: 200.0 mg/kg/injection, schedule: Q01DX001 (ip), vehicle: saline.
Where [14] appears, read: endpoint: mean survival time, dose: 400.0 mg/kg/injection, schedule: Q01DX001 (ip), vehicle: saline.
Where [15] appears, read: endpoint: mean survival time, dose: 25.0 mg/kg/injection, schedule: Q01DX009 (ip), vehicle: Klucel (hydroxypropylcellulose) (HPC).
The mark [16] stands for this setting: endpoint: mean survival time, dose: 50.0 mg/kg/injection, schedule: Q01DX009 (ip), vehicle: Klucel (hydroxypropylcellulose) (HPC).
[17] abbreviates: endpoint: mean survival time, dose: 100.0 mg/kg/injection, schedule: Q01DX009 (ip), vehicle: Klucel (hydroxypropylcellulose) (HPC).
The mark [18] stands for this setting: endpoint: mean survival time, dose: 50.0 mg/kg/injection, schedule: Q04DX002 (ip), vehicle: saline with Tween-80.
[19] abbreviates: endpoint: mean survival time, dose: 100.0 mg/kg/injection, schedule: Q01DX009 (ip), vehicle: saline with Tween-80.
[20] abbreviates: endpoint: mean survival time, dose: 12.5 mg/kg/injection, schedule: Q04DX002 (ip), vehicle: saline with Tween-80.
Where [21] appears, read: endpoint: mean survival time, dose: 25.0 mg/kg/injection, schedule: Q04DX002 (ip), vehicle: saline with Tween-80.

Where “and” joins values, the source holds several entries; their conditions need not be identical. Identical values can stand only once. Inconclusive results and toxic doses are left out. Non-standard residues stand in square brackets, D forms with d. Residues, ends and D or L forms follow the SMILES beside them. *: point of attachment. Cbz = O=C(OCc1ccccc1)*; Dha = C=C(N)C(=O)O

On to `COc1cc([N+](=O)[O-])ccc1NC(=O)Nc1nccs1`, for which the T/C is 96 % of control and 97 % of control (endpoint: mean survival time, dose: 50.0 mg/kg/injection, schedule: Q01DX009 (ip), vehicle: saline with Tween-80); 97 % of control under setting [1]; 87 % of control under setting [2]; 98 % of control under setting [3]; 92 % of control under setting [4]; 95 % of control and 100 % of control and 104 % of control under setting [5]. Further, the T/C by setting is: under setting [6], 95 % of control; under setting [7], 95 % of control; under setting [8], 100 % of control; under setting [9], 97 % of control; under setting [10], 102 % of control; under setting [11], 101 % of control.
For `NC(=S)N/N=C/c1ccccn1`, the T/C is, setting by setting: (endpoint: mean survival time, dose: 1.56 mg/kg/injection, schedule: Q04DX002 (ip), vehicle: Klucel (hydroxypropylcellulose) (HPC)) 108 % of control; (endpoint: mean survival time, dose: 3.12 mg/kg/injection, schedule: Q04DX002 (ip), vehicle: Klucel (hydroxypropylcellulose) (HPC)) 112 % of control; (endpoint: mean survival time, dose: 6.25 mg/kg/injection, schedule: Q04DX002 (ip), vehicle: Klucel (hydroxypropylcellulose) (HPC)) 92 % of control; (endpoint: mean survival time, dose: 6.7 mg/kg/injection, schedule: Q01DX009 (ip), vehicle: saline with Tween-80) 151 % of control; (endpoint: mean survival time, dose: 10.0 mg/kg/injection, schedule: Q01DX009 (ip), vehicle: saline with Tween-80) 107 % of control; (endpoint: mean survival time, dose: 15.0 mg/kg/injection, schedule: Q01DX009 (ip), vehicle: saline with Tween-80) 93 % of control.
Turning to `OCC1OC(n2cnc3c(OC4CCCC4)ncnc32)C(O)C1O` (centres undefined), the T/C is, setting by setting: under setting [12], 101 % of control; under setting [13], 100 % of control; under setting [14], 100 % of control.
Turning to `C[n+]1ccn(CC(=O)c2ccccc2)c1`, the T/C (endpoint: mean survival time, dose: 25.0 mg/kg/injection, schedule: Q01DX009 (ip), vehicle: saline) is 105 % of control; the T/C (endpoint: mean survival time, dose: 50.0 mg/kg/injection, schedule: Q01DX009 (ip), vehicle: saline) is 103 % of control; the T/C (endpoint: mean survival time, dose: 100.0 mg/kg/injection, schedule: Q01DX009 (ip), vehicle: saline) is 105 % of control; the T/C (endpoint: mean survival time, dose: 100.0 mg/kg/injection, schedule: Q04DX003 (ip), vehicle: saline) was 102 % of control.
As to `Cc1cc2cc3c(=O)[nH]c(=O)nc-3n(CC(O)C(O)C(O)CO)c2cc1C` (centres undefined), the T/C is, setting by setting: under setting [12], 103 % of control; under setting [13], 107 % of control; under setting [14], 98 % of control.
`CSc1cc(C)[o+]c(C)c1`: the T/C by setting is: (endpoint: mean survival time, dose: 12.5 mg/kg/injection, schedule: Q01DX009 (ip), vehicle: Klucel (hydroxypropylcellulose) (HPC)) 94 % of control; under setting [15], 97 % of control; under setting [16], 108 % of control; under setting [17], 113 % of control; (endpoint: mean survival time, dose: 200.0 mg/kg/injection, schedule: Q01DX009 (ip), vehicle: Klucel (hydroxypropylcellulose) (HPC)) 117 % of control.
For `Nc1nc(N)c(-c2cccc(Cl)c2)c(COc2ccc(NC(=O)Nc3cccc(S(=O)(=O)F)c3)cc2)n1`, the T/C (endpoint: mean survival time, dose: 37.5 mg/kg/injection, schedule: Q01DX001 (ip), vehicle: saline with Tween-80) was 100 % of control; the T/C (endpoint: mean survival time, dose: 75.0 mg/kg/injection, schedule: Q01DX001 (ip), vehicle: saline with Tween-80) was 91 % of control; the T/C (endpoint: mean survival time, dose: 150.0 mg/kg/injection, schedule: Q01DX001 (ip), vehicle: saline with Tween-80) is 92 % of control.
As to `c1ccc2nc(NCCSSCCNc3cnc4ccccc4n3)cnc2c1`, the T/C is 92 % of control (endpoint: mean survival time, dose: 100.0 mg/kg/injection, schedule: Q01DX009 (ip), vehicle: saline sonified); 94 % of control under setting [3]; 93 % of control (endpoint: mean survival time, dose: 200.0 mg/kg/injection, schedule: Q01DX009 (ip), vehicle: saline sonified); 101 % of control under setting [7]; 87 % of control (endpoint: mean survival time, dose: 400.0 mg/kg/injection, schedule: Q01DX009 (ip), vehicle: saline sonified); 96 % of control under setting [11].
For the molecule `C=C(NC(=O)CNC(=O)OCc1ccccc1)C(=O)O` (Cbz-Gly-[Dha]-OH), the T/C under setting [18] was 102 % of control, the T/C under setting [2] is 98 % of control, the T/C under setting [6] was 96 % of control and the T/C under setting [10] is 94 % of control.
As to `O=C(Oc1cccc(OC(=O)c2ccccc2)c1)c1ccccc1`, the T/C reads like this: under setting [19], 100 % of control; under setting [5], 97 % of control; under setting [9], 95 % of control.
With `CCCCCCCCCc1nc(N)nc(NCCCC)n1`, the T/C reads like this: under setting [15], 101 % of control; under setting [16], 112 % of control; under setting [17], 108 % of control.
As to `CC(=O)OC1CSC(C(C)(C)C)SC1` (centres undefined), the T/C is 102 % of control under setting [20], 102 % of control under setting [21] and 108 % of control under setting [18].
Take `NC(N)=NS(=O)(=O)c1ccc(NCc2c3ccccc3nc3ccccc23)cc1`: the T/C runs as follows: (endpoint: median survival time, dose: 50.0 mg/kg/injection, schedule: Q01DX005 (ip), vehicle: Klucel (hydroxypropylcellulose) (HPC)) 150 % of control; (endpoint: median survival time, dose: 172.8 mg/kg/injection, schedule: Q01DX005 (ip), vehicle: Klucel (hydroxypropylcellulose) (HPC)) 178 % of control; (endpoint: median survival time, dose: 200.0 mg/kg/injection, schedule: Q01DX005 (ip), vehicle: Klucel (hydroxypropylcellulose) (HPC)) 153 % of control; (endpoint: median survival time, dose: 400.0 mg/kg/injection, schedule: Q01DX005 (ip), vehicle: Klucel (hydroxypropylcellulose) (HPC)) 172 % of control; (endpoint: median survival time, dose: 480.0 mg/kg/injection, schedule: Q01DX005 (ip), vehicle: Klucel (hydroxypropylcellulose) (HPC)) 150 % of control; (endpoint: median survival time, dose: 800.0 mg/kg/injection, schedule: Q01DX005 (ip), vehicle: Klucel (hydroxypropylcellulose) (HPC)) 178 % of control and 182 % of control. Besides, under “endpoint: median survival time, dose: 1333.33 mg/kg/injection, schedule: Q01DX005 (ip), vehicle: Klucel (hydroxypropylcellulose) (HPC)”, the T/C was 187 % of control.
For the molecule `COc1cnnc2ccccc12`, the T/C was 104 % of control under setting [3], 103 % of control under setting [7] and 92 % of control under setting [11].
With `S=C(Sc1ccccc1)Sc1ccccc1`, the T/C under setting [19] is 88 % of control; the T/C under setting [3] was 92 % of control; the T/C under setting [5] is 95 % of control; the T/C under setting [7] is 103 % of control; the T/C under setting [9] was 91 % of control; the T/C under setting [11] was 104 % of control.
In the case of `CC(C)COC(=O)CN(CC(=O)OCC(C)C)c1ccccc1`, the T/C is, setting by setting: under setting [19], 96 % of control; under setting [3], 110 % of control; under setting [5], 98 % of control; under setting [7], 97 % of control; under setting [9], 103 % of control; under setting [11], 97 % of control.
For the molecule `O=C(CC(=O)C(F)(F)F)C(F)(F)F.[C-]#[O+].[C-]#[O+].[Mn].c1ccc([PH+](c2ccccc2)c2ccccc2)cc1.c1ccc([PH+](c2ccccc2)c2ccccc2)cc1`, the T/C is 91 % of control under setting [20], 91 % of control under setting [21] and 95 % of control under setting [18].
Regarding `CCOC(=O)Nc1cc(N)c2[nH]cnc2n1`, the T/C (endpoint: mean survival time, dose: 100.0 mg/kg/injection, schedule: Q01DX001 (ip), vehicle: carboxymethylcellulose (CMC)) was 96 % of control.
In the case of `CCOc1ccc(NC(=O)OCC(C)C)cc1`, the T/C is, setting by setting: under setting [1], 97 % of control; under setting [4], 101 % of control; under setting [8], 89 % of control.
As to `CN(CC#N)N=Nc1ccc(C(N)=O)cc1`, the T/C was 96 % of control and 98 % of control (endpoint: mean survival time, dose: 4.68 mg/kg/injection, schedule: Q01DX009 (ip), vehicle: Klucel (hydroxypropylcellulose) (HPC)); 102 % of control and 104 % of control (endpoint: mean survival time, dose: 9.37 mg/kg/injection, schedule: Q01DX009 (ip), vehicle: Klucel (hydroxypropylcellulose) (HPC)); 95 % of control and 98 % of control (endpoint: mean survival time, dose: 18.75 mg/kg/injection, schedule: Q01DX009 (ip), vehicle: Klucel (hydroxypropylcellulose) (HPC)); 102 % of control and 107 % of control (endpoint: mean survival time, dose: 37.5 mg/kg/injection, schedule: Q01DX009 (ip), vehicle: Klucel (hydroxypropylcellulose) (HPC)); 118 % of control (endpoint: mean survival time, dose: 75.0 mg/kg/injection, schedule: Q01DX009 (ip), vehicle: Klucel (hydroxypropylcellulose) (HPC)).
